Laboratory results: US12371454B2, “Cyclic peptide compound having Kras inhibitory action” (priority 2019, dated 2025)
Starred links: 1 amine or outer side, 2 acyl side, 3 side chain; linkers in the order of their positions; H or OH if unused. Positions of bridges follow the written chain, without caps; N, C: chain ends. Non-standard residues stand in square brackets, D forms with d. Residues, ends and D or L forms follow the SMILES beside them. *: point of attachment. hPhe(3,5-F2-4-CF3) = N[C@@H](CCc1cc(F)c(C(F)(F)F)c(F)c1)C(=O)O; hPhe(3-Cl-4-CF3) = N[C@@H](CCc1ccc(C(F)(F)F)c(Cl)c1)C(=O)O; NMePhe(4-CF3) = CN[C@@H](Cc1ccc(C(F)(F)F)cc1)C(=O)O; 3Oxa8azabicyclo(3.2.1)octane = C1CC2COCC1N2*; NMeAbu(4,4,4-F3) = CN[C@@H](CC(F)(F)F)C(=O)O; NMePhe(4-Me) = CN[C@@H](Cc1ccc(C)cc1)C(=O)O; X41 = O=C([C@H](Cc1cccc(I)c1F)N[*:1])[*:2]; X53 = O=C([C@H](Cc1cccc(F)c1F)N[*:1])[*:2]; X83 = O=C([C@H](Cc1cncc(Br)c1)N[*:1])[*:2]; Pro(4,4-F2) = O=C(O)[C@@H]1CC(F)(F)CN1; NMeY = CN[C@@H](Cc1ccc(O)cc1)C(=O)O; NMeCha = CN[C@@H](CC1CCCCC1)C(=O)O; NMeChg = CN[C@H](C(=O)O)C1CCCCC1; NMeI = CC[C@H](C)[C@H](NC)C(=O)O; NMeD = CN[C@@H](CC(=O)O)C(=O)O; NMeL = CN[C@@H](CC(C)C)C(=O)O; Oxazolidin(3-yl) = C1CN(*)CO1; NMeV = CN[C@H](C(=O)O)C(C)C; d(β3hA) = C[C@@H](N)CC(=O)O; NMeAbu = CC[C@H](NC)C(=O)O; NMeA = CN[C@@H](C)C(=O)O; NMeAib = CNC(C)(C)C(=O)O; Nle = CCCC[C@H](N)C(=O)O; Piperidide = C1CCN(*)CC1; Pyrrolidide = C1CCN(*)C1; Ac5c = NC1(C(=O)O)CCCC1; Aze = O=C(O)[C@@H]1CCN1; Sar = CNCC(=O)O

biological target: T1, Kras and SOS1 (biotin-tagged human Kras loaded with GDP, His-tagged human SOS1) (Homo sapiens, UniProt P01116, G12D); test: Protein-protein interaction inhibition between Kras and SOS1 (KrasGl2D-SOS PPI) using AlphaScreen; format: binding; conditions: AlphaScreen; biotin-tagged human Kras loaded with GDP, His-tagged human SOS1; read-out: KRAS G12D-SOS PPI IC50
T1 construct: made in house; host or cells: E. coli (stated for Kras only)
T1 sequence (P01116 1-188 isoform P01116-2 G12D): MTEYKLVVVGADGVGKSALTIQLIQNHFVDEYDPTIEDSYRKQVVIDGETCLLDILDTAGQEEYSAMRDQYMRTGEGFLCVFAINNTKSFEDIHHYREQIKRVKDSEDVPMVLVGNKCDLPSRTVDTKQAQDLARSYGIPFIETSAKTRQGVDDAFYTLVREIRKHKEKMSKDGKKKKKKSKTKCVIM
Outline: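 Kras was produced in E. coli, purified, then loaded with GDP. It was paired via streptavidin acceptor beads with His-SOS1 held on nickel donor beads, and proximity signal at 520-620 nm was read after 680 nm illumination.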

Point of comparison: `CC[C@H](C)[C@@H]1NC(=O)[C@H](CC(C)C)N(C)C(=O)C[C@@H](C(=O)N2C3CCC2COC3)NC(=O)[C@H]([C@@H](C)CC)N(C)C(=O)C2(CCCC2)NC(=O)[C@@H]2CCCN2C(=O)[C@H](CCc2ccc(C(F)(F)F)c(Cl)c2)NC(=O)CN(C)C(=O)[C@H](CC2CCCCC2)N(C)C(=O)CN(C)C(=O)CN(C)C1=O` [Compound 1257] ([NMeL]I[Sar][Sar][NMeCha][Sar][hPhe(3-Cl-4-CF3)]P[Ac5c][NMeI]D-{3Oxa8azabicyclo(3.2.1)octane}; lactam N-11), IC50 6.5 nM. Against it:
- CC[C@H](C)[C@@H]1NC(=O)[C@H](CC(C)C)N(C)C(=O)C[C@@H](C)NC(=O)[C@H](C)N(C)C(=O)C2(CCCC2)NC(=O)[C@@H]2CCCN2C(=O)[C@H](CCc2ccc(C(F)(F)F)c(Cl)c2)NC(=O)CN(C)C(=O)[C@H](Cc2ccc(C)cc2)N(C)C(=O)[C@@H]2CCN2C(=O)[C@H](C)N(C)C1=O [Compound 1239] (cyclo([Ac5c][NMeA][d(β3hA)][NMeL]I[NMeA][Aze][NMePhe(4-Me)][Sar][hPhe(3-Cl-4-CF3)]P)) — 28-fold higher, 180 nM
- CCCC[C@@H]1NC(=O)[C@H](Cc2cncc(Br)c2)NC(=O)CN(C)C(=O)[C@H](Cc2ccc(OC)cc2)N(C)C(=O)[C@@H]2CCN2C(=O)[C@H](C)N(C)C(=O)[C@H]([C@@H](C)CC)NC(=O)[C@H](CC)N(C)C(=O)C[C@@H](C(=O)N2CCCCC2)N(C)C(=O)[C@H](CC(C)C)NC(=O)C(C)(C)N(C)C1=O [Compound 1240] ([NMeAbu]I[NMeA][Aze][NMeY](Me)[Sar][X83][Nle][NMeAib]L[NMeD]-Piperidide; lactam N-11) — 45-fold higher, 290 nM
- CC[C@H](C)[C@@H]1NC(=O)[C@H](CC(C)C)N(C)C(=O)C[C@@H](C(=O)N2CCCCC2)N(C)C(=O)[C@H](C(C)C)N(C)C(=O)C2(CCCC2)NC(=O)[C@H](C)N(C)C(=O)[C@H](CCc2ccc(C(F)(F)F)c(Cl)c2)NC(=O)CN(C)C(=O)[C@H](CC2CCCCC2)N(C)C(=O)[C@@H]2CCN2C(=O)[C@H](C)N(C)C1=O [Compound 1243] ([NMeL]I[NMeA][Aze][NMeCha][Sar][hPhe(3-Cl-4-CF3)][NMeA][Ac5c][NMeV][NMeD]-Piperidide; lactam N-11) — 4.2-fold higher, 27 nM
- CC[C@H](C)[C@@H]1NC(=O)[C@H](CC(F)(F)F)N(C)C(=O)C[C@@H](C(=O)N2CCCC2)N(C)C(=O)[C@H](C2CCCCC2)N(C)C(=O)C2(CCCC2)NC(=O)[C@@H]2CCCN2C(=O)[C@H](CCc2cc(F)c(C(F)(F)F)c(F)c2)NC(=O)CN(C)C(=O)[C@H](Cc2ccc(C(F)(F)F)cc2)N(C)C(=O)CN(C)C(=O)CN(C)C1=O [Compound 1244] ([NMeAbu(4,4,4-F3)]I[Sar][Sar][NMePhe(4-CF3)][Sar][hPhe(3,5-F2-4-CF3)]P[Ac5c][NMeChg][NMeD]-Pyrrolidide; lactam N-11) — 10-fold lower, 0.63 nM
- CC[C@H](C)[C@@H]1NC(=O)[C@H](CC(F)(F)F)N(C)C(=O)C[C@@H](C(=O)N2CCCC2)N(C)C(=O)[C@H](C2CCCCC2)N(C)C(=O)C2(CCCC2)NC(=O)[C@@H]2CC(F)(F)CN2C(=O)[C@H](CCc2ccc(C(F)(F)F)c(Cl)c2)NC(=O)CN(C)C(=O)[C@H](Cc2ccc(C)cc2)N(C)C(=O)CN(C)C(=O)CN(C)C1=O [Compound 1245] ([NMeAbu(4,4,4-F3)]I[Sar][Sar][NMePhe(4-Me)][Sar][hPhe(3-Cl-4-CF3)][Pro(4,4-F2)][Ac5c][NMeChg][NMeD]-Pyrrolidide; lactam N-11) — 12-fold lower, 0.54 nM
- CC[C@H](C)[C@@H]1NC(=O)[C@H](CC(C)C)N(C)C(=O)C[C@@H](C(=O)N2CCOC2)NC(=O)[C@H]([C@@H](C)CC)N(C)C(=O)C2(CCCC2)NC(=O)[C@@H]2CCCN2C(=O)[C@H](CCc2ccc(C(F)(F)F)c(Cl)c2)NC(=O)CN(C)C(=O)[C@H](CC2CCCCC2)N(C)C(=O)CN(C)C(=O)CN(C)C1=O [Compound 1247] ([NMeL]I[Sar][Sar][NMeCha][Sar][hPhe(3-Cl-4-CF3)]P[Ac5c][NMeI]D-{Oxazolidin(3-yl)}; lactam N-11) — within 1.5-fold, 4.8 nM
- CCCC[C@@H]1NC(=O)[C@H](Cc2cccc(I)c2F)NC(=O)CN(C)C(=O)[C@H](Cc2ccc(OC)cc2)N(C)C(=O)[C@@H]2CCN2C(=O)[C@H](C)N(C)C(=O)[C@H]([C@@H](C)CC)NC(=O)[C@H](CC)N(C)C(=O)C[C@@H](C(=O)N2CCCCC2)N(C)C(=O)[C@H](CC(C)C)NC(=O)C(C)(C)N(C)C1=O [Compound 1249] ([NMeAbu]I[NMeA][Aze][NMeY](Me)[Sar][X41][Nle][NMeAib]L[NMeD]-Piperidide; lactam N-11) — 5.1-fold higher, 33 nM
- CCCC[C@@H]1NC(=O)[C@H](Cc2cccc(F)c2F)NC(=O)CN(C)C(=O)[C@H](Cc2ccc(OC)cc2)N(C)C(=O)[C@@H]2CCN2C(=O)[C@H](C)N(C)C(=O)[C@H]([C@@H](C)CC)NC(=O)[C@H](CC)N(C)C(=O)C[C@@H](C(=O)N2CCCCC2)N(C)C(=O)[C@H](CC(C)C)NC(=O)C(C)(C)N(C)C1=O [Compound 1256] ([NMeAbu]I[NMeA][Aze][NMeY](Me)[Sar][X53][Nle][NMeAib]L[NMeD]-Piperidide; lactam N-11) — within 1.5-fold, 9.1 nM
